Test results as given in ChEMBL document CHEMBL2073853, “Cholesterol interaction with the daunorubicin binding site of P-glycoprotein” (Biochem Biophys Res Commun, 2000).

Target: ATP-dependent translocase ABCB1 (Homo sapiens, UniProt P08183)
Assay: TP_TRANSPORTER: increase in Daunorubicn intracellular accumulation (Daunorubicin: ? uM) in NIH-G185 cells
Assay type: functional, cell-based

Chain of ATP-dependent translocase ABCB1 (P08183 whole entry): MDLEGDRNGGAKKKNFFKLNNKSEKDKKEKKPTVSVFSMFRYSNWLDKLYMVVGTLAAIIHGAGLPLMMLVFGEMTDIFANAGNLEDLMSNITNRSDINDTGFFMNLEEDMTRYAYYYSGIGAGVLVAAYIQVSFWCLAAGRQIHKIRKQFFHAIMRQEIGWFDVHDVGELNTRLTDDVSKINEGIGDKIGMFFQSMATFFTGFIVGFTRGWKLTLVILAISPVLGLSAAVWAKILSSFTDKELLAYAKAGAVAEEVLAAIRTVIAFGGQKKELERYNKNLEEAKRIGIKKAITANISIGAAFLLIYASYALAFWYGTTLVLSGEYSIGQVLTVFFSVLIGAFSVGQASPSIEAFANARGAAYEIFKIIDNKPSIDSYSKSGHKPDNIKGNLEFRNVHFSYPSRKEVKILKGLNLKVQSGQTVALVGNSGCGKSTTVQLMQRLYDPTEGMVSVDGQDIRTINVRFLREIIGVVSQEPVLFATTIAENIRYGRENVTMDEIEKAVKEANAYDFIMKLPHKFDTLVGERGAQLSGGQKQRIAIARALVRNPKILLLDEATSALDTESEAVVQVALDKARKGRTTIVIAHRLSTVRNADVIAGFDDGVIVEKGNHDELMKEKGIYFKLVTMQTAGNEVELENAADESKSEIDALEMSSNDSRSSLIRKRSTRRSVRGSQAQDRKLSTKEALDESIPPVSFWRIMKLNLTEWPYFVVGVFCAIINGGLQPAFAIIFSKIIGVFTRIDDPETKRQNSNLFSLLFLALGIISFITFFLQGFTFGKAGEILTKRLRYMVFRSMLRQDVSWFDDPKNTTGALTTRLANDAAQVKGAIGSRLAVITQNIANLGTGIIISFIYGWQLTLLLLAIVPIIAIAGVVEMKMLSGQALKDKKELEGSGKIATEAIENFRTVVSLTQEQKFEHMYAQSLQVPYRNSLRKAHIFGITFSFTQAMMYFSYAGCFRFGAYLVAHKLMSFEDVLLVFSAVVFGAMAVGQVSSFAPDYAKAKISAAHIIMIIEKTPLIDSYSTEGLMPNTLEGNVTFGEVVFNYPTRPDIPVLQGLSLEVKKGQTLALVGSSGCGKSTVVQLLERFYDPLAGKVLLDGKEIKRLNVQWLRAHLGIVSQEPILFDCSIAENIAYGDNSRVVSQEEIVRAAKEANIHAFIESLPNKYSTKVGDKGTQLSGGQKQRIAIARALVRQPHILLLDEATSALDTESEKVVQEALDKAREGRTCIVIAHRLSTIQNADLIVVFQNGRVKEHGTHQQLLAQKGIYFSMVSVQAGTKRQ

CC(C)CCC[C@@H](C)[C@H]1CC[C@H]2[C@@H]3CC=C4C[C@@H](O)CC[C@]4(C)[C@H]3CC[C@]12C [CHOLESTEROL]
IC50: 8.2 µM
